Results reported in US12344599B2, “Prodigiosin analogs and methods of use” (Institute For Cancer Research, priority 2016, dated 2025).

Key:
SW480 = experiment: CellTiterGlo cell viability assay, SW480; assay type: cell-based; conditions: Homo sapiens; SW480, colorectal cancer, p53 R273, P309S, 72 hours
Description: (§1) • 1) Cell lines: HT29, SW480, DLD-1, HCT116, and p53-null HCT116 cells, H1975, MDA-MD-231, U251, FaDu, CAL-27, PANC-1, Aspc-1, and MRC5 were obtained from the ATCC and cultured as recommended. Cells were regularly authenticated by bioluminescence, growth, and morphologic observation. The cells were routinely examined for Mycoplasma and all cell lines underwent STR authentication. • 2) Western blotting: After treatment, protein lysates were collected for Western blot analysis. 15 μg of protein was used for SDS-PAGE. After primary and secondary antibody incubations, the signal was detected by chemiluminescent detection kit, imaged by Syngene (Imgen Technologies). […] The cell viability was assessed by CellTiterGlo bioluminescent cell proliferation assay (Promega), following the manufacturer's protocol. Bioluminescence imaging was measured using the IVIS imager. Percentage of cell viability (mean±SEM) at each dose was calculated against the respective DMSO control. The IC50 values were determined from the sigmoidal dose-response curves using GraphPad Prims4. • 4) Caspase activity assay: Cells were seeded in 96-well plate (1×10^4 cells/well). […] The caspase 3/7 activity was assessed by Caspase-Glo® 3/7 Assay kit (Promega), following the manufacturer's protocol. Bioluminescence imaging was measured using the IVIS imager. […]

HCT116 p53−/− = experiment: CellTiterGlo cell viability assay, HCT116 p53−/−; assay type: cell-based; conditions: Homo sapiens, HCT-116, colorectal cancer, p53 null, 72 hours
Description: as §1

H1975 = experiment: CellTiterGlo cell viability assay, H1975; assay type: cell-based; conditions: Homo sapiens, NCI-H1975; H1975, NSCLC, p53 R273H, 72 hours
Description: as §1

caspase 3/7 = experiment: Caspase-Glo 3/7 caspase activity assay; assay type: cell-based, human; conditions: mutant p53 and p53-null cancer cells, 24 hours
Description: as §1

HT29 cells = experiment: Flow cytometry sub-G1 (PI staining) analysis; assay type: cell-based, human; conditions: for sub-G1 populations: HT29, co-treatment with PG3-Oc and TRAIL; for sub-G1 population: 1 μM PG3-Oc for 48 hours
Description: • 1) Cell lines: HT29, SW480, DLD-1, HCT116, and p53-null HCT116 cells, H1975, MDA-MD-231, U251, FaDu, CAL-27, PANC-1, Aspc-1, and MRC5 were obtained from the ATCC and cultured as recommended. Cells were regularly authenticated by bioluminescence, growth, and morphologic observation. The cells were routinely examined for Mycoplasma and all cell lines underwent STR authentication. • 2) Western blotting: After treatment, protein lysates were collected for Western blot analysis. 15 μg of protein was used for SDS-PAGE. After primary and secondary antibody incubations, the signal was detected by chemiluminescent detection kit, imaged by Syngene (Imgen Technologies). Antibodies for Puma, FLIPL/S and p53 (Santa Cruz Biotechnology), cleaved caspase 8, caspase 9, caspase 3, cleavage PARP, eIF2α, p-eIF2α(Ser51), CHOP, ATF4, DR5, FOXO3a, p-FOXO3a(Ser253), NF-κB p65, p-NF-κB p65(Ser536), c-Jun, p-c-Jun(Ser63), JNK, p-JNK(Thr183/Tyr185) (Cell Signaling Technology), Noxa, p21 (Calbiochem), p73 (Bethyl laboratories Inc), Ran (BD Biosciences), […] (Sigma). • 3) Cell viability assay: Cells were seeded in 96-well plate (6×10^3 cells/well). Cells were treated with different concentrations of compounds or dimethyl sulfoxide (DMSO) control for 72 hours. The cell viability was assessed by CellTiterGlo bioluminescent cell proliferation assay (Promega), following the manufacturer's protocol. Bioluminescence imaging was measured using the IVIS imager. Percentage of cell viability (mean±SEM) at each dose was calculated against the respective DMSO control. The IC50 values were determined from the sigmoidal dose-response curves using GraphPad Prims4. • 4) Caspase activity assay: Cells were seeded in 96-well plate (1×10^4 cells/well). Cells were treated with different concentrations of compounds or DMSO control for 24 hours. The caspase 3/7 activity was assessed by Caspase-Glo® 3/7 Assay kit (Promega), following the manufacturer's protocol. Bioluminescence imaging was measured using the IVIS imager. Caspase activity was normalized to cell numbers and compared to those of DMSO treatment as control in each cell line. Data is reported as mean RLU+SEM (n=3). • 5) Colony formation assays: Five hundred cells were seeded per well on 6-well plates and treated with different concentrations of compounds for 24 hours, then, cells were cultured with drug-free complete medium for 2 weeks with fresh medium changed every 7 days. Cells were fixed with 10% formalin and stained with 0.05% crystal violet at the end of 2 weeks period of cell culture. • 6) Flow cytometry assay: • a) Cell Cycle Analysis: Propidium iodide (PI) staining and flow cytometry were used to determine the degree of cellular apoptosis. Cells were seeded at 3×10^5 cells/well in six-well plates. Cells were treated with PG3-Oc for 48 hours. Cells were harvested, fixed by 70% ethanol, and stained by propidium iodide, then flow cytometry was performed as previously described (Smithen et al., Org. Biomol. Chem., 2013, 11, 62-68). The percentage of hypodiploid cells (sub-G1) was used to quantify dead cells in apoptosis assays. • b) Early apoptosis detection: Cells were seeded at 3×10^5 cells/well in six-well plates. Cells were treated with PG3-Oc for 48 hours. […]

SW480 cells = experiment: qRT-PCR of p53 target gene mRNA, SW480; assay type: cell-based, human; conditions: SW480, 1 μM
Description: Total RNA was isolated from PG3-Oc-treated cells using the Quick-RNA mini prep kit (Zymo Research, Irvine, CA) according to the manufacturer's protocol. 500 ng of total RNA was used to generate cDNA using SuperScript III first-strand synthesis system with random primers (Invitrogen), following the manufacturer's protocol. Real-time PCR was performed using POWER SYBR GREEN mast mix (Applied Biosystem) for DR5, p21, PUMA, GAPDH, and TaqMan primer-probes for detection of c-Myc mRNA levels on 7900HT Sequence Detection System (Applied Biosystem). Primers having SEQ ID NOs:1-6 (see above) were used. Taq Prob IDs for c-Myc (HS 00153408) and GAPDH (HA 99999905). ΔΔCt method was used to analyze and report fold changes of the indicated genes.

panel of CRC cell lines = experiment: Colony formation assay (long-term cell proliferation); assay type: cell-based, human; conditions: low dose
Description: Five hundred cells were seeded per well in 6-well plates and treated with different concentrations of compounds for 24 hours, then, cells were cultured with drug-free complete medium for 2 weeks with fresh medium changed every 7 days. Cells were fixed with 10% formalin and stained with 0.05% crystal violet at the end of 2 weeks period of cell culture (Franken et al., Nat. Protoc., 2006, 1, 2315-9).

Work on `CCCCCCCCOC(=O)CCc1c(C)[nH]c(/C=C2\N=C(c3ccc[nH]3)C=C2OC)c1C` [PG3-Oc, Octyl (Z)-3-(5-((4′-methoxy-1H,5′H-[2,2′-bipyrrol]-5′-ylidene)methyl)-2,4-dimethyl-1H-pyrrol-3-yl)propanoate] yielded an IC50 (SW480) of 95.3 nM, an IC50 (HCT116 p53−/−) of 41.1 nM and an IC50 (H1975) of 190 nM. For the same compound, the “increase in caspase 3/7 activity as compared to untreated cells” value (caspase 3/7) was 2 fold, the sub-G1 populations (HT29 cells; siRNA knockdown of DR5) was 29.5% and the sub-G1 populations (HT29 cells; without DR5 knockdown) was 72.9%. The sub-G1 population (HT29 cells; HT29, knockdown of PUMA by siRNA) was 11.1%, the sub-G1 population (HT29 cells; HT29, siControl) was 25.8% and the “induction of p21 mRNA” value (SW480 cells; 8 and 19 hours post-treatment) was “no significant change”. For the same compound, the “DR5 mRNA upregulation” value (SW480 cells; 19 hours post-treatment) was “about 2 fold” and the “inhibition in long-term cell proliferation” value (panel of CRC cell lines) was “Over 90%”.
